Some test systems named below: A498 renal; HCC-2998 colon; M14 melanoma; MOLT-4 leukemia; SK-MEL-28 melanoma; UACC-257 melanoma; UACC-62 melanoma; CAKI-1 renal.
What all share (assay): growth of human tumour cells (NCI), 48 h

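Compound exposure: 48 hours, 5 concentrations, 96-well plates. Abbreviation: GI50, concentration required for 50% inhibition of growth. TGI marks complete inhibition of growth.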 Where only a bound is given, the exact number is not on record here.

With `Cc1nc2c(o1)C(=Nc1ccccc1)c1nc(C)oc1C2=Nc1ccccc1`, the TGI in the experiment on A498 renal is 3.01 µM; in the experiment with HCC-2998 colon it was 80.3 µM; in the experiment on M14 melanoma, greater than 100 µM; in the experiment with MOLT-4 leukemia it was 72.6 µM; in the experiment with SK-MEL-28 melanoma, 44.9 µM; with UACC-257 melanoma it was 97.6 µM. In addition, the TGI in the experiment on UACC-62 melanoma is 39.4 µM.

Turning to `Clc1cccc(-c2nnc(-c3nn(-c4ccccc4)c4nc5ccccc5nc34)o2)c1`, the TGI in the experiment with CAKI-1 renal, in the experiment on HCC-2998 colon, in the experiment on M14 melanoma, in the experiment on MOLT-4 leukemia, with SK-MEL-28 melanoma and with UACC-257 melanoma was greater than 100 µM each time. This compound displayed a TGI in the experiment with UACC-62 melanoma greater than 100 µM.

In the case of `COC1OC2COC(C)(C)OC2C(OC(C)=O)C1NC(=O)N(CCCl)N=O` (stereo not given), the TGI with A498 renal, in the experiment with CAKI-1 renal, in the experiment with HCC-2998 colon, in the experiment with M14 melanoma, in the experiment on MOLT-4 leukemia and in the experiment with SK-MEL-28 melanoma was greater than 100 µM in each case. Further, the TGI with UACC-257 melanoma and in the experiment on UACC-62 melanoma was greater than 100 µM each time.

`CC(=O)[CH-]C(=O)c1ccccc1.CC(=O)[CH-]C(=O)c1ccccc1.O=S(=O)([O-])c1cc([O-])c2c([O-])cc(S(=O)(=O)[O-])cc2c1.[Na+].[Zr+4]`: the GI50 in the experiment on A498 renal was greater than 100 µM; in the experiment with CAKI-1 renal it was 60 µM; in the experiment on HCC-2998 colon it was greater than 100 µM; in the experiment on M14 melanoma, 52.2 µM; in the experiment on MOLT-4 leukemia, 40.8 µM; in the experiment on SK-MEL-28 melanoma, greater than 100 µM. For the same compound, the GI50 in the experiment with UACC-257 melanoma was 87.2 µM; with UACC-62 melanoma, greater than 100 µM. The TGI in the experiment with A498 renal, with CAKI-1 renal, in the experiment on HCC-2998 colon, with M14 melanoma, with MOLT-4 leukemia and in the experiment with SK-MEL-28 melanoma was greater than 100 µM each time. Besides, the TGI in the experiment on UACC-257 melanoma and in the experiment with UACC-62 melanoma was greater than 100 µM each time.

Consider `COc1cc(/C=N/N=C(\N)NO)c(Cl)cc1O`, for which the TGI with A498 renal, in the experiment on CAKI-1 renal, with HCC-2998 colon, with MOLT-4 leukemia, with SK-MEL-28 melanoma and in the experiment on UACC-257 melanoma was greater than 100 µM each time. The same compound returned a TGI in the experiment with UACC-62 melanoma greater than 100 µM.

For `Cc1cc(C)c(-c2noc(-c3ccc(Cl)cc3)c2C2=NCCCN2)c(C)c1`, the TGI in the experiment with CAKI-1 renal is greater than 100 µM; in the experiment with HCC-2998 colon, 43.6 µM; with M14 melanoma, 6.11 µM; in the experiment on MOLT-4 leukemia, 41.7 µM; with SK-MEL-28 melanoma it was 29.9 µM; in the experiment with UACC-257 melanoma, 40.6 µM. The compound further displayed a TGI in the experiment with UACC-62 melanoma of 40.7 µM.

In the case of `O=C(Nc1ccc(Cl)cc1Cl)OC(Cn1cncn1)c1ccc(Cl)cc1Cl` (stereo not given), the TGI was 34.2 µM in the experiment on A498 renal; 32.1 µM in the experiment with M14 melanoma; greater than 100 µM in the experiment on MOLT-4 leukemia; 30.1 µM with SK-MEL-28 melanoma; 30.9 µM in the experiment on UACC-257 melanoma; 28.1 µM with UACC-62 melanoma.

Take `COc1ccc(S(=O)(=O)N(CC(=O)O)c2ccccc2)cc1`: the TGI with A498 renal, in the experiment with CAKI-1 renal, with HCC-2998 colon, in the experiment with M14 melanoma, with MOLT-4 leukemia and with SK-MEL-28 melanoma was greater than 100 µM in each case. The TGI with UACC-257 melanoma and with UACC-62 melanoma was greater than 100 µM throughout.

Regarding `C/C=C1\CN2CCc3c([nH]c4ccccc34)C2CC1CCO` (stereo not given), the TGI in the experiment with A498 renal, in the experiment on HCC-2998 colon, in the experiment with M14 melanoma, in the experiment with MOLT-4 leukemia, in the experiment on SK-MEL-28 melanoma and in the experiment with UACC-257 melanoma was greater than 100 µM each time.

As to `N#CC(C(=O)/C(=N\NC(N)=O)C(C#N)c1ccccc1)c1ccccc1` (stereo not given), the TGI in the experiment on A498 renal, with CAKI-1 renal, with HCC-2998 colon, in the experiment with M14 melanoma, in the experiment on MOLT-4 leukemia and with SK-MEL-28 melanoma was greater than 100 µM each time. Moreover, the TGI in the experiment with UACC-257 melanoma and in the experiment with UACC-62 melanoma was greater than 100 µM in each case.

As to `COc1c(-c2ccccc2)nc2ccc(Oc3ccccc3)nn12`, the TGI in the experiment on A498 renal was greater than 66.5 µM; in the experiment on CAKI-1 renal it was greater than 100 µM; in the experiment on HCC-2998 colon, greater than 100 µM; with M14 melanoma it was greater than 100 µM; with MOLT-4 leukemia, greater than 64.7 µM; in the experiment with SK-MEL-28 melanoma it was 99.5 µM. Moreover, the values for the TGI with UACC-257 melanoma and with UACC-62 melanoma were greater than 96.5 µM and greater than 100 µM, respectively.

Turning to `O=C1C2C3CC(C4C5C=CC(C5)C34)C2C2C3CC(C12)C1C2C=CC(C2)C31` (stereo not given), the TGI in the experiment with A498 renal, in the experiment on CAKI-1 renal, with HCC-2998 colon, in the experiment on M14 melanoma, with MOLT-4 leukemia and with SK-MEL-28 melanoma was greater than 100 µM each time. For the same compound, the TGI with UACC-257 melanoma and with UACC-62 melanoma was greater than 100 µM each time.

For `CN(/N=C/c1ccnc2ccccc12)c1c([N+](=O)[O-])cc([N+](=O)[O-])cc1[N+](=O)[O-]`, the TGI in the experiment with A498 renal, in the experiment with CAKI-1 renal, in the experiment with HCC-2998 colon, in the experiment with M14 melanoma, in the experiment on MOLT-4 leukemia and with SK-MEL-28 melanoma was greater than 100 µM in each case. The TGI in the experiment with UACC-257 melanoma and with UACC-62 melanoma was greater than 100 µM each time.

Regarding `CCOc1ccccc1N=Nc1c(-c2ccccc2)nn(C(=O)CC(=O)Nc2cccc(C)c2)c1-c1ccccc1`, the TGI with CAKI-1 renal, in the experiment on HCC-2998 colon, in the experiment on M14 melanoma, in the experiment on MOLT-4 leukemia, in the experiment with SK-MEL-28 melanoma and with UACC-257 melanoma was greater than 100 µM each time. Further, the TGI with UACC-62 melanoma is greater than 100 µM.

As for `N/N=C(/Cc1nc2ccc(C(=O)c3ccccc3)cc2[nH]c1=O)C(=O)Nc1ccc([N+](=O)[O-])cc1[N+](=O)[O-]`, the GI50 with A498 renal, in the experiment on HCC-2998 colon, in the experiment on M14 melanoma, in the experiment on MOLT-4 leukemia and in the experiment on SK-MEL-28 melanoma was greater than 100 µM throughout. Also, the TGI in the experiment with A498 renal, in the experiment on CAKI-1 renal, in the experiment with HCC-2998 colon, with M14 melanoma, in the experiment on MOLT-4 leukemia and in the experiment on SK-MEL-28 melanoma was greater than 100 µM in each case. Moreover, the TGI with UACC-257 melanoma and in the experiment on UACC-62 melanoma was greater than 100 µM throughout.

In the case of `CN(/N=C\c1ccnc2ccccc12)c1ccc([N+](=O)[O-])cc1`, the TGI in the experiment on A498 renal, with CAKI-1 renal, in the experiment on HCC-2998 colon, with M14 melanoma, in the experiment with MOLT-4 leukemia and in the experiment on SK-MEL-28 melanoma was greater than 100 µM throughout. In addition, the TGI in the experiment on UACC-257 melanoma and in the experiment with UACC-62 melanoma was greater than 100 µM in each case.

With `CNS(=O)(=O)NNS(=O)(=O)c1ccc(OC)cc1`, the TGI with A498 renal, in the experiment on CAKI-1 renal, in the experiment on HCC-2998 colon, with M14 melanoma, with MOLT-4 leukemia and in the experiment on UACC-257 melanoma was greater than 100 µM each time. The same compound displayed a TGI in the experiment with UACC-62 melanoma greater than 100 µM.

For `CCNC(=O)OCc1c(COC(=O)NCC)c(-c2ccc(Cl)c(Cl)c2)n2c1CCC2`, the TGI came to 14.6 µM with CAKI-1 renal; 27.7 µM in the experiment on HCC-2998 colon; 24.3 µM in the experiment on M14 melanoma; 56.3 µM in the experiment with MOLT-4 leukemia; 36.9 µM in the experiment on SK-MEL-28 melanoma; 83.8 µM with UACC-257 melanoma. In the experiment on UACC-62 melanoma, this compound returned a TGI of 23.1 µM.

On to `COC(=O)[C@@H]1Cc2c([nH]c3ccccc23)[C@H](c2ccccc2)N1`, for which the TGI in the experiment with A498 renal was 48.6 µM; with CAKI-1 renal, greater than 100 µM; in the experiment with HCC-2998 colon, 91.8 µM; with M14 melanoma it was 79.6 µM; with MOLT-4 leukemia, greater than 100 µM; in the experiment with SK-MEL-28 melanoma, greater than 100 µM. Further, the TGI in the experiment on UACC-257 melanoma and in the experiment on UACC-62 melanoma was greater than 100 µM throughout.

Turning to `O=C(Nc1ccc(Cl)c(Cl)c1)C(=O)C(C(=O)c1ccccc1-c1ccccc1)C1OC(=O)c2ccccc21` (stereo not given), the TGI is 65.5 µM in the experiment on A498 renal; 27.6 µM in the experiment with HCC-2998 colon; 30.1 µM with M14 melanoma; greater than 100 µM in the experiment with MOLT-4 leukemia; greater than 100 µM in the experiment on SK-MEL-28 melanoma; greater than 100 µM in the experiment with UACC-257 melanoma. This compound showed a TGI in the experiment on UACC-62 melanoma of 41.2 µM.

In the case of `COc1ccc(OC)c(/C=N/N=C(\N)NO)c1`, the TGI with CAKI-1 renal is 71.4 µM; in the experiment on M14 melanoma it was 89.4 µM; in the experiment with SK-MEL-28 melanoma, greater than 100 µM; in the experiment with UACC-257 melanoma, greater than 100 µM; in the experiment with UACC-62 melanoma, 26.9 µM.

Turning to `CC(=O)[C@H]1CCC2[C@@H]3CC=C4C[C@@H]([O-])CC[C@]4(C)C3CC[C@@]21C.CC(=O)[C@H]1CCC2[C@@H]3CC=C4C[C@@H]([O-])CC[C@]4(C)C3CC[C@@]21C.CC(=O)[CH-]C(=O)c1ccccc1.CC(=O)[CH-]C(=O)c1ccccc1.Cl.[Ti+4]` (stereo not given in full), the GI50 in the experiment on A498 renal was 12.8 µM; in the experiment on CAKI-1 renal it was 19 µM; in the experiment with HCC-2998 colon it was 33.2 µM; in the experiment on M14 melanoma, 18.8 µM; in the experiment with MOLT-4 leukemia, 38.1 µM; with UACC-257 melanoma it was 16.2 µM. For the same compound, in the experiment on UACC-62 melanoma, the GI50 was 15.8 µM. Moreover, the TGI with A498 renal was 27 µM; in the experiment with CAKI-1 renal, 97.3 µM; in the experiment with HCC-2998 colon, 85.3 µM; in the experiment on M14 melanoma, 46.1 µM; in the experiment with MOLT-4 leukemia it was greater than 100 µM; in the experiment with UACC-257 melanoma, 69.7 µM. Further, the TGI in the experiment on UACC-62 melanoma came to 56.9 µM.

Values taken from PubChem BioAssay (NCI).
